Experimental data from publication PMC7883042 (Peptide Science (Hoboken, N.j.), 2021).
“And” between values parts separate entries of the source, which are not always exact repeats. Equal values may be shown once. Bridge positions count the residues as written; N and C are the ends. Square brackets hold non-standard residues; d marks the D form. Peptide text beside a SMILES is read from it. R8 = C=CCCCCCC[C@@](C)(N)C(=O)O; S5 = C=CCCC[C@](C)(N)C(=O)O

System: SARS‐CoV‐2 spike (Wuhan‐Hu‐1 strain) pseudovirus with HIV core, entry into 293 T ACE2 expressing cells
Assay: not given
Assay type: cell-based
Conditions: not given

Compound | inhibition of viral entry
Ac-IEEQAKTFLDKFNHER8EDLFYQS5-NH2 (sidechain bridge or staple) [Peptide 8] | None of these compounds including stapled peptide 8 inhibited viral entry
Ac-FHTSEYDEQNEIEAAQLFKDFLK-NH2 [Scrambled negative control] | None of these compounds including stapled peptide 8 inhibited viral entry
IEEQAKR8FLDKFNS5EAEDLFYQS (sidechain bridge or staple) [Stapled negative control] | None of these compounds including stapled peptide 8 inhibited viral entry

System: not listed separately
Assay: circular dichroism
Conditions: PBS; pH 7.4; rt °C; 100 uM

Compound | helicity
CC(=O)N[C@H](C(=O)N[C@@]1(C)CCCC=CCCC[C@@](C)(C(=O)N[C@@H](CC(N)=O)C(=O)N[C@@H](Cc2c[nH]cn2)C(=O)N[C@@H](CCC(=O)O)C(=O)N[C@@H](C)C(=O)N[C@@H](CCC(=O)O)C(=O)N[C@@H](CC(=O)O)C(=O)N[C@@H](CC(C)C)C(N)=O)NC(=O)[C@H](CCCCN)NC(=O)[C@H](CC(=O)O)NC(=O)[C@H](CC(C)C)NC1=O)[C@@H](C)O | 21%
CC(=O)N[C@H](C(=O)N[C@@H](Cc1ccccc1)C(=O)N[C@]1(C)CCCCCC/C=C/CCC[C@@](C)(C(=O)N[C@@H](CCC(=O)O)C(=O)N[C@@H](CC(=O)O)C(=O)N[C@@H](CC(C)C)C(N)=O)NC(=O)[C@H](CCC(=O)O)NC(=O)[C@H](Cc2c[nH]cn2)NC(=O)[C@H](CC(N)=O)NC(=O)[C@H](Cc2ccccc2)NC(=O)[C@H](CCCCN)NC(=O)[C@H](CC(=O)O)NC1=O)[C@@H](C)O (Ac-TF[R8]DKFNHE[S5]EDL-NH2; staple (E) 3-10) | 16.1%
CC[C@H](C)[C@H](NC(C)=O)C(=O)N[C@@H](CCC(=O)O)C(=O)N[C@@H](CCC(=O)O)C(=O)N[C@@H](CCC(N)=O)C(=O)N[C@]1(C)CCCCCC/C=C/CCC[C@@](C)(C(=O)N[C@@H](CC(N)=O)C(=O)N[C@@H](Cc2c[nH]cn2)C(=O)N[C@@H](CCC(=O)O)C(N)=O)NC(=O)[C@H](CCCCN)NC(=O)[C@H](CC(=O)O)NC(=O)[C@H](CC(C)C)NC(=O)[C@H](Cc2ccccc2)NC(=O)[C@H]([C@@H](C)O)NC(=O)[C@H](CCCCN)NC1=O (Ac-IEEQ[R8]KTFLDK[S5]NHE-NH2; staple (E) 5-12) | 12.2%
Ac-IEEQAKTFLDKFNHE-NH2 | 9.6%
Ac-HEAEDLFYQS-NH2 | 5.9%
Ac-TFLDKFNHEAEDL-NH2 | 8.6%
CC(=O)N[C@@H](Cc1c[nH]cn1)C(=O)N[C@@H](CCC(=O)O)C(=O)N[C@@]1(C)CCCC=CCCC[C@@](C)(C(=O)N[C@@H](Cc2ccc(O)cc2)C(=O)N[C@@H](CCC(N)=O)C(=O)N[C@@H](CO)C(N)=O)NC(=O)[C@H](CC(C)C)NC(=O)[C@H](CC(=O)O)NC(=O)[C@H](CCC(=O)O)NC1=O (Ac-HE[S5]EDL[S5]YQS-NH2; staple 3-7) | 33.4%

System: not given
Assay: not given
Assay type: physicochemical
Conditions: pH 7.4

Compound | % Helicity
Ac-IEEQAKTFR8DKFNHES5EDLFYQS-NH2 (sidechain bridge or staple) [Peptide 5] | 31.3%
Ac-HEAEDLFYQS-NH2 [Peptide 9] | 5.9%
Ac-IEEQAR8TFLDKFS5HEAEDLFYQS-NH2 (sidechain bridge or staple) [Peptide 4] | 57.9%
Ac-IEEQR8KTFLDKS5NHEAEDLFYQS-NH2 (sidechain bridge or staple) [Peptide 3] | 55.6%
Ac-TS5LDKS5NHEAEDL-NH2 (sidechain bridge or staple) [Peptide 15] | 21.0%
Ac-TFR8DKFNHES5EDL-NH2 (sidechain bridge or staple) [Peptide 14] | 16.1%
Ac-IEEQAKTFLDKFR8HEAEDLS5YQS-NH2 (sidechain bridge or staple) [Peptide 7] | 54.5%
Ac-IEEQAKTFLDKFNHE-NH2 [Peptide 11] | 9.6%
Ac-IR8EQAKTFS5LKFNHEAEDLFYQS-NH2 (sidechain bridge or staple) [Peptide 2] | 35.4%
Ac-IEEQAKTFLDKFNHER8EDLFYQS5-NH2 (sidechain bridge or staple) [Peptide 8] | 72% and 72.2%
Ac-TFLDKFNHEAEDL-NH2 [Peptide 13] | 8.6%
Ac-IEEQAKTFLDKR8NHEAEDS5FYQS-NH2 (sidechain bridge or staple) [Peptide 6] | 23.5%
Ac-IEEQR8KTFLDKS5NHE-NH2 (sidechain bridge or staple) [Peptide 12] | 12.2%
